Literature values in US20110104272A1 (DEPOMED, INC., priority 2009, published 2011).

Row | SMILES | solubility in water (in words)
1 | CC(=O)Nc1ccc(O)cc1 [Acetaminophen, N-(4-hydroxyphenyl)acetamine] | poorly soluble in water
2 | CNC[C@H](O)c1cccc(O)c1 [Phenylephrine, (R)-3-[-1-hydroxy-2-(methylamino)ethyl]phenol] | highly soluble in water
